Data set [1] concerns Mycobacterium smegmatis ATCC 607. The experiment in a line: Antibacterial activity by the agar cylinder plate method, Mycobacterium smegmatis ATCC607. It is filed as cell-based. The conditions noted are these: copper-containing compound, standard bleomycin A2 = 1,000 mcg potency/mg. The source says:
(§1) (1) Antibacterial activity against Mycobacterium smegmatis ATCC607 and Bacillus subtilis
(§2) The above activity ws determined by the agar cylinder plate method using the above microorganisms.

A further data set deals with Bacillus subtilis. The experiment in a line: Antibacterial activity by the agar cylinder plate method, Bacillus subtilis. It is filed as cell-based. The settings on record: copper-containing compound, standard bleomycin A2 = 1,000 mcg potency/mg.
From the text: as §1, §2

The subject of the next data set is ICR mice. The experiment in a line: Pulmonary toxicity (fibrosis of the lung) in mice. The conditions noted are these: for Incidence: Number of mice with pulmonary fibrosis/Number of mice in the treatment group / Incidence (%) of pulmonary fibrosis / Grade: Total score for pulmonary fibrosis/Total specimens / Grade of pulmonary fibrosis (total score divided by total number of specimens): 5 mg/kg i.p. once daily for 10 days; for Incidence: Number of mice with pulmonary fibrosis/Number of mice in the treatment group / Incidence (%) of pulmonary fibrosis: autopsy after 5 weeks of observation; for Incidence: Number of mice with pulmonary fibrosis/Number of mice in the treatment group: count; for Incidence (%) of pulmonary fibrosis: percentage in parentheses; for Grade: Total score for pulmonary fibrosis/Total specimens / Grade of pulmonary fibrosis (total score divided by total number of specimens): autopsy after 5 weeks, scores 0, 1, 2, 4, 6 points; for Grade: Total score for pulmonary fibrosis/Total specimens: fraction; for Grade of pulmonary fibrosis (total score divided by total number of specimens): value in parentheses; for Grade ratio: grade of the test compound to that of bleomycin complex; for Incidence ratio: incidence of the test compound to that of bleomycin complex.

The structures appear in SMILES notation.

Description for ICR mice: ICR mice (male, 15-week-old) were used in groups of 10 each. The dose of each test compound was 5 mg/kg injected intraperitoneally once daily for 10 consecutive days. After the administration of the compound was completed, the animals were reared for 5 weeks for observation. Then, the animals were killed and autopsied so that the incidence and grade of pulmonary fibrosis were examined.
The incidence of pulmonary fibrosis was expressed as the number of mice developing pulmonary fibrosis in the group of mice administered the test compound. The grade of pulmonary fibrosis was expressed as the total score for pulmonary fibrosis divided by the total number of specimens.
1 point: Accumulation of exudate in the alveoli, and fibrosis-like changes seen in the alveolar septum.
2 points: Fibrosis seen at several sites.
4 points: Sporadic fibrosis.
6 points: Extensive fibrosis (fibrosis seen in more than 170 of the total region).
The ratio in the table represents the ratio of the incidence of the test compound to that of bleomycin complex, or the ratio of the grade of the test compound to that of bleomycin complex.

Consider `Cc1c(N)nc(C(CC(N)=O)NCC(N)C(N)=O)nc1C(=O)NC(C(=O)NC(C)C(O)C(C)C(=O)NC(C(=O)NCCc1nc(-c2nc(C(=O)NCCCN(CCCCN(Cc3ccccc3)Cc3ccccc3)Cc3ccccc3)cs2)cs1)C(C)O)C(OC1OC(CO)C(O)C(O)C1OC1OC(CO)C(O)C(OC(N)=O)C1O)c1cnc[nH]1` (centres unmarked) [Compound 1, 3-[N-benzyl-N-(4'-dibenzylaminobutyl)amino]propylaminobleomycin], for which the “Antibacterial titer of copper-compound” value in data set [1] was found to be 17360 mcg potency/mg. In the data set on Bacillus subtilis, the “Antibacterial titer of copper-compound” value was 400 mcg potency/mg. Besides, in the data set on ICR mice, the “Incidence: Number of mice with pulmonary fibrosis/Number of mice in the treatment group” value was 0/10, the “Incidence (%) of pulmonary fibrosis” value is 0%, the “Grade: Total score for pulmonary fibrosis/Total specimens” value is 0/30 and the “Grade of pulmonary fibrosis (total score divided by total number of specimens)” value is listed as 0. Also, in the data set with ICR mice, the Grade ratio stood at 0.00 and the Incidence ratio is 0.00.

In the case of `Cc1c(N)nc(C(CC(N)=O)NCC(N)C(N)=O)nc1C(=O)NC(C(=O)NC(C)C(O)C(C)C(=O)NC(C(=O)NCCc1nc(-c2nc(C(=O)NCCCN(CCCCN(Cc3ccc(Cl)cc3)Cc3ccc(Cl)cc3)Cc3ccc(Cl)cc3)cs2)cs1)C(C)O)C(OC1OC(CO)C(O)C(O)C1OC1OC(CO)C(O)C(OC(N)=O)C1O)c1cnc[nH]1` (centres unmarked) [Compound 2, 3-{N--p-chlorobenzyl-N--[4'-bis(p-chlorobenzyl)aminobutyl]amino}propylaminobleomycin], the “Antibacterial titer of copper-compound” value in data set [1] stood at 613 mcg potency/mg. Also, the “Antibacterial titer of copper-compound” value in the data set on Bacillus subtilis amounted to 129 mcg potency/mg. In the data set on ICR mice, the “Incidence: Number of mice with pulmonary fibrosis/Number of mice in the treatment group” value is recorded as 0/10, the “Incidence (%) of pulmonary fibrosis” value was 0%, the “Grade: Total score for pulmonary fibrosis/Total specimens” value is given as 0/30 and the “Grade of pulmonary fibrosis (total score divided by total number of specimens)” value was 0. In addition, in the data set with ICR mice, the Grade ratio was found to be 0.00 and the Incidence ratio turned out to be 0.00.

For the compound `Cc1c(N)nc(C(CC(N)=O)NCC(N)C(N)=O)nc1C(=O)NC(C(=O)NC(C)C(O)C(C)C(=O)NC(C(=O)NCCc1nc(-c2nc(C(=O)NCCCN(CCCCN(Cc3ccc(Cl)c(Cl)c3)Cc3ccc(Cl)c(Cl)c3)Cc3ccc(Cl)c(Cl)c3)cs2)cs1)C(C)O)C(OC1OC(CO)C(O)C(O)C1OC1OC(CO)C(O)C(OC(N)=O)C1O)c1cnc[nH]1` (centres unmarked) [Compound 3, 3-{N--m,p-dichlorobenzyl-N--[4'-bis(m,p-dichlorobenzyl)aminobutyl]amino}propylaminobleomycin], the “Antibacterial titer of copper-compound” value in data set [1] is 217 mcg potency/mg. Further, the “Antibacterial titer of copper-compound” value in the data set on Bacillus subtilis stood at 43 mcg potency/mg. In the data set with ICR mice, the “Incidence: Number of mice with pulmonary fibrosis/Number of mice in the treatment group” value is listed as 0/10, the “Incidence (%) of pulmonary fibrosis” value stood at 0%, the “Grade: Total score for pulmonary fibrosis/Total specimens” value is 0/30 and the “Grade of pulmonary fibrosis (total score divided by total number of specimens)” value was found to be 0. Also, in the data set on ICR mice, the Grade ratio came out at 0.00 and the Incidence ratio is given as 0.00.

In the case of `COc1ccc(CN(CCCCN(Cc2ccc(OC)cc2)Cc2ccc(OC)cc2)CCCNC(=O)c2csc(-c3csc(CCNC(=O)C(NC(=O)C(C)C(O)C(C)NC(=O)C(NC(=O)c4nc(C(CC(N)=O)NCC(N)C(N)=O)nc(N)c4C)C(OC4OC(CO)C(O)C(O)C4OC4OC(CO)C(O)C(OC(N)=O)C4O)c4cnc[nH]4)C(C)O)n3)n2)cc1` (centres unmarked) [Compound 4, 3-{N--p-methoxybenzyl-N--[4'-bis(p-methoxybenzyl)aminobutyl]amino}propylaminobleomycin], the “Antibacterial titer of copper-compound” value in data set [1] was 11109 mcg potency/mg. For the same compound, in the data set with Bacillus subtilis, the “Antibacterial titer of copper-compound” value is 197 mcg potency/mg. In the data set with ICR mice, the “Incidence: Number of mice with pulmonary fibrosis/Number of mice in the treatment group” value is listed as 0/10, the “Incidence (%) of pulmonary fibrosis” value is given as 0%, the “Grade: Total score for pulmonary fibrosis/Total specimens” value is 0/30 and the “Grade of pulmonary fibrosis (total score divided by total number of specimens)” value is 0. Moreover, in the data set on ICR mice, the Grade ratio amounted to 0.00 and the Incidence ratio is on record as 0.00.

Take `Cc1ccc(CN(CCCCN(Cc2ccc(C)cc2)Cc2ccc(C)cc2)CCCNC(=O)c2csc(-c3csc(CCNC(=O)C(NC(=O)C(C)C(O)C(C)NC(=O)C(NC(=O)c4nc(C(CC(N)=O)NCC(N)C(N)=O)nc(N)c4C)C(OC4OC(CO)C(O)C(O)C4OC4OC(CO)C(O)C(OC(N)=O)C4O)c4cnc[nH]4)C(C)O)n3)n2)cc1` (centres unmarked) [Compound 5, 3-{N--p-methylbenzyl-N--[4'-bis(p-methylbenzyl)aminobutyl]amino}propylaminobleomycin]: the “Antibacterial titer of copper-compound” value in data set [1] is recorded as 4560 mcg potency/mg. Further, in the data set on Bacillus subtilis, the “Antibacterial titer of copper-compound” value was found to be 203 mcg potency/mg. In the data set with ICR mice, the “Incidence: Number of mice with pulmonary fibrosis/Number of mice in the treatment group” value is on record as 0/10, the “Incidence (%) of pulmonary fibrosis” value is recorded as 0%, the “Grade: Total score for pulmonary fibrosis/Total specimens” value was 0/30 and the “Grade of pulmonary fibrosis (total score divided by total number of specimens)” value was found to be 0. Further, in the data set with ICR mice, the Grade ratio is reported as 0.00 and the Incidence ratio is 0.00.

For the compound `Cc1c(N)nc(C(CC(N)=O)NCC(N)C(N)=O)nc1C(=O)NC(C(=O)NC(C)C(O)C(C)C(=O)NC(C(=O)NCCc1nc(-c2nc(C(=O)NCCCN(CCCCN(CC3CCCCCCC3)CC3CCCCCCC3)CC3CCCCCCC3)cs2)cs1)C(C)O)C(OC1OC(CO)C(O)C(O)C1OC1OC(CO)C(O)C(OC(N)=O)C1O)c1cnc[nH]1` (centres unmarked) [Compound 6, 3-{N--cyclooctylmethyl-N--[4'-bis(cyclooctylmethyl)aminobutyl]amino}propylaminobleomycin], the “Antibacterial titer of copper-compound” value in data set [1] amounted to 530 mcg potency/mg. The “Antibacterial titer of copper-compound” value with Bacillus subtilis worked out at 61 mcg potency/mg. Besides, in the data set on ICR mice, the “Incidence: Number of mice with pulmonary fibrosis/Number of mice in the treatment group” value is on record as 0/10, the “Incidence (%) of pulmonary fibrosis” value was determined as 0%, the “Grade: Total score for pulmonary fibrosis/Total specimens” value is 0/30 and the “Grade of pulmonary fibrosis (total score divided by total number of specimens)” value is 0. In the data set on ICR mice, the Grade ratio worked out at 0.00 and the Incidence ratio came to 0.00.

Take `Cc1c(N)nc(C(CC(N)=O)NCC(N)C(N)=O)nc1C(=O)NC(C(=O)NC(C)C(O)C(C)C(=O)NC(C(=O)NCCc1nc(-c2nc(C(=O)NCCC[N+](C)(C)CCCCN(Cc3ccccc3)Cc3ccccc3)cs2)cs1)C(C)O)C(OC1OC(CO)C(O)C(O)C1OC1OC(CO)C(O)C(OC(N)=O)C1O)c1cnc[nH]1` (centres unmarked) [Compound 11, 3-[N,N-dimethyl-N-(4'-dibenzyl-aminobutyl)amino]propylaminobleomycin]: the “Antibacterial titer of copper-compound” value is listed as 20160 mcg potency/mg in data set [1] and 2528 mcg potency/mg in the data set with Bacillus subtilis.

`Cc1c(N)nc(C(CC(N)=O)NCC(N)C(N)=O)nc1C(=O)NC(C(=O)NC(C)C(O)C(C)C(=O)NC(C(=O)NCCc1nc(-c2nc(C(=O)NCCCNCCCCN)cs2)cs1)C(C)O)C(OC1OC(CO)C(O)C(O)C1OC1OC(CO)C(O)C(OC(N)=O)C1O)c1c[nH]cn1` (centres unmarked) [Compound A5, 3-(4'-aminobutylamino)propylaminobleomycin, reference compound]: in the data set on ICR mice, the “Incidence: Number of mice with pulmonary fibrosis/Number of mice in the treatment group” value was 5/10, the “Incidence (%) of pulmonary fibrosis” value was 50%, the “Grade: Total score for pulmonary fibrosis/Total specimens” value is listed as 5/30 and the Grade ratio turned out to be 0.29. Also, the Incidence ratio with ICR mice is recorded as 0.71. Also, the Grade of pulmonary fibrosis (total score divided by total number of specimens) in the data set with ICR mice (the values are: mean fibrosis score per specimen) stood at 0.17.

The record behind these values is patent US4808703A, “Novel 3-(4'-aminobutylamino) propylaminobleomycin derivatives” (Zaidan Hojin Biseibutsu Kagaku Kenku Kai, priority 1983, dated 1989).
